The results in this text go back to patent publication US5698581A, “Substituted N-heteroaroylguanidines, a process for their preparation, their use as a medicament or diagnostic agent, and a medicament containing them” (Hoechst Aktiengesellschaft, priority 1994, dated 1997).

Molecules are shown by their SMILES.

The target in this assay is T1, Na^+ /H^+ exchanger of rabbit erythrocytes (Oryctolagus cuniculus, UniProt P23791).
T1 construct: determine the Na^+ influx into the erythrocytes via Na^+ /H^+ exchange; endogenous in cells; host or cells: erythrocytes in whole blood of cholesterol-fed New Zealand White rabbits
T1 sequence (P23791 whole entry): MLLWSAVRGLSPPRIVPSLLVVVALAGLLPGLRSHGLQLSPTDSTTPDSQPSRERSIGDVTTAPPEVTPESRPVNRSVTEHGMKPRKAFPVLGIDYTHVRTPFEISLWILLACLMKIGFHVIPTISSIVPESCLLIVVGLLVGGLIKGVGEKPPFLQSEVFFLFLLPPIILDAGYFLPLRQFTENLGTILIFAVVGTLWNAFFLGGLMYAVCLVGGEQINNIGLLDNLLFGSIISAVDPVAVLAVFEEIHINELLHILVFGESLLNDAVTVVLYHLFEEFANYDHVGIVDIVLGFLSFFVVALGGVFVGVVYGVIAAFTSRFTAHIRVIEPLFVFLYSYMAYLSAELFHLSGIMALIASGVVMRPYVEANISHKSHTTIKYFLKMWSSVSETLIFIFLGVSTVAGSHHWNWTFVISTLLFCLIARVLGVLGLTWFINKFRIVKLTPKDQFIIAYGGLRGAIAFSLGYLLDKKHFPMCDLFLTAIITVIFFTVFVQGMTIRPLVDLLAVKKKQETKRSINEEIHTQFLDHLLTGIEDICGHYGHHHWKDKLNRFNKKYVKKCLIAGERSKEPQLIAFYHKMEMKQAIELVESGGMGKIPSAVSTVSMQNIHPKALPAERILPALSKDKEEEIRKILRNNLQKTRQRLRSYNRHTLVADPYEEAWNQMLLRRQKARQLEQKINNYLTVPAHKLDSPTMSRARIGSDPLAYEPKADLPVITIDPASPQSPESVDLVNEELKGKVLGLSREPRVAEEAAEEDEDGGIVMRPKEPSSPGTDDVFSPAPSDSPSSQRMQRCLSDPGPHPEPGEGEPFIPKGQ
The assay can be described thus: Inhibition of the Na^+ /H^+ exchanger of rabbit erythrocytes (amiloride-sensitive sodium influx, flame photometry). The format is cell-based, rabbit (New Zealand White). Particulars: pH 7.4, 37° C., rabbits on 2% cholesterol diet. From the text:
Inhibition of the Na^+ /H^+ exchanger of rabbit erythrocytes
New Zealand White rabbits (Ivanovas) were given a standard diet containing 2% cholesterol for six weeks in order to activate Na^+ /H^+ exchange and thus to be able to use flame photometry to determine the Na^+ influx into the erythrocytes via Na^+ /H^+ exchange. The blood was removed from the aural arteries and rendered incoagulable by the addition of 25 IU of potassium heparin. One part of each sample was used for the duplicate determination of the hematocrit by centrifugation. Aliquots of in each case 100 μl were employed for measuring the initial content of Na^+ in the erythrocytes.
In order to determine the amiloride-sensitive sodium influx, 100 μl of each blood sample were in each case incubated, at pH 7.4 and 37° C., in 5 ml of a hyperosmolar salt/sucrose medium (mmol/l: 140 NaCl, 3 KCl, 150 sucrose, 0.1 ouabain, 20 tris(hydroxymethyl)aminomethane). The erythrocytes were then washed three times with ice cold MgCl2 /ouabain solution (mmol/l: 112 MgCl2, 0.1 ouabain) and hemolyzed in 2.0 ml of distilled water. The intracellular content of sodium was determined by flame photometry.
The nett influx of Na^+ was calculated from the difference between the initial sodium values and the sodium content of the erythrocytes following incubation. The amiloride-inhibitable sodium Influx was given by the difference in the sodium content of the erythrocytes following incubation with and without 3×10^-4 mol/l amiloride. The same procedure was also used in the case of the compounds according to the invention.
For `Cn1c(C(=O)N=C(N)N)ccc1C(F)(C(F)(F)F)C(F)(F)F` [Example 1, 5-Heptafluoroisopropyl-1-methylpyrrole-2-carboguanidide], the IC50 worked out at 0.3 µM.
The same measure for `Cn1c(C(=O)N=C(N)N)ccc1C(F)(F)C(F)(F)C(F)(F)F` [Example 2, 5-Heptafluoro-n-propyl-1-methylpyrrole-2-carboguanidide]: 1 µM; for `Cn1c(C(=O)N=C(N)N)ccc1C(F)(F)C(F)(F)F` [Example 3, 5-Pentafluoroethyl-1-methylpyrrole-2-carboguanidide]: 0.3 µM; for `Cn1c(C(=O)N=C(N)N)ccc1C(F)(F)F` [Example 4, 5-Trifluoromethyl-1-methylpyrrole-2-carboguanidide]: 0.2 µM.
The molecule `Cn1cccc1C(=O)N=C(N)N` [Example 5, 1-Methylpyrrole-2-carboguanidide] displayed an IC50 of 5 µM.
The same measure for `CC(C)c1sc(C(=O)N=C(N)N)cc1S(C)(=O)=O` [Example 6, 5-Isopropyl-4-methylsulfonylthiophene-2-carboguanidide]: 0.5 µM; for `Cc1ccc(C(=O)N=C(N)N)s1` [Example 7, 5Methylthiophene-2-carboguanidide]: 3 µM; for `NC(N)=NC(=O)c1cc(Br)c(Br)s1` [Example 8, 4,5-Dibromothiophene-2-carboguanidide]: 0.5 µM.
